In test [1] the target is PK R510Q (Homo sapiens, UniProt P30613, R510Q). As to the kind of experiment: PKR Mutant Assay (R510Q), LDH-coupled, absorbance 340 nm. The note with it: mutant PKR R510Q enzyme activation. The test is classed as biochemical. On the procedure:
(§1) PKR (WT or mutant) enzyme stock solution was diluted to prepare a 1.25× Reaction Mix (without ADP). 1 μL of test compound was first added to the wells followed by 40 μL of 1.25× Reaction Mix (without ADP) and incubated at room temperature (25° C.) for 60 min. The reaction was initiated with 10 μL ADP, bringing the final Reaction Mix to 1x, and the reaction progress was measured as changes in absorbance at 340 nm wavelength at room temperature.
(§2) Test compound preparation: Test compounds were prepared at 50× final concentration in DMSO. 1 to 3 dilutions were made for 11 points (for example 50 μL of 5000 μM compound was added to 100 μL 100% DMSO to yield a 1667 μM, 50 μL of this added to 100 μL DMSO to yield 556 μM, and so forth). The compounds were added to the assay as a 1 to 50 dilution (1 μL in 50 μL) to yield a top concentration of 100 μM, decreasing 3-fold for 11 points.
(§3) Reaction Mix: PKR (1.25-1000 ng/well, 0.025-20 μg/ml depending on the PKR mutant), ADP (0.05-2.3 mM depending on the PKR mutant), PEP (0.031-2 mM depending on the PKR mutant), NADH (180 μM), LDH (0.005 U/μL, Sigma #L3888), 1 mM DTT, 0.03% BSA in 1× Reaction Buffer
(§4) Reaction Buffer: 100 mM KCl, 50 mM Tris pH 7.5, 5 mM MgCl2.

Test [2] concerns the target PKR K410E (Homo sapiens, UniProt P30613, K410E). Kind of test: PKR Mutant Assay (K410E), LDH-coupled, absorbance 340 nm. The test is classed as biochemical. The note with it: mutant PKR K410E enzyme activation. On the procedure:
as §1, §2, §3, §4

Test [3] relates to RBCs. Kind of test: Cell Based ATP Assay in purified red blood cells (Cell-Titer-Glo). As to conditions: wild type PKR, ATP levels in RBCs, overnight at 37° C. Also on record: species or system human. On the procedure: Fresh blood drawn from healthy volunteers into K2EDTA tubes was collected. Whole blood was pelleted by spinning at 500 g for 10 minutes. The transfusion bag port was cut off Purecell leukocyte reduction neofilter (Fisher NC0267633) one (1) inch above filter. A 10 ml syringe barrel was attached to the remaining cut tubing attached to the neofilter. The plasma layer was removed from the pellet of the whole blood and the pellet was resuspended in 2× volume of phosphate buffered saline (PBS). 9 ml re-suspended blood cell pellet was transferred to a 10 ml syringe that was attached to the neofilter. The whole blood was allowed to gravity flow through filter until all fluid ran through upper tubing into a filter disc. The plunger was added to the syringe. The filter was inverted and air was plunged through the syringe filter system. A new 5 ml syringe was used to remove filtered RBCs from the bag by the syringe port. Purified RBCs were transferred to a 5 ml snap cap tube that had been incubated on ice. The 5 ml snap cap tube was spun at 500 g for 10 minutes at 15 C. Supernatant was aspirated and resuspended in AGAM (1×PBS, 1% glucose, 170 mg/L adenine, 5.25 g/L mannitol) at a density of 4×10^9 cells/mL.
For cell based ATP assays, the compound as described herein was prepared in 100% DMSO as a 10 mM stock. Serial dilutions (1:4) were performed in 96-well V-bottom storage plate and then added 1:100 to 96-well V-bottom plates containing AGAM. 10 μL/well of compound diluted in AGAM was added to black clear bottom assay plates. RBCs were diluted in AGAM media to a density of 1×10^7 cells/mL before added 90 μL/well to black clear bottom assay plates (final compound concentration at 0.1% DMSO concentration). Assay plates were sealed using aluminum foil seals and incubated overnight at 37° C. in a humidified chamber. ATP levels were read out using Cell-Titer-Glo (Promega).

The target in test [4] is PKM2 WT (Homo sapiens, UniProt P14618). Kind of test: PKM2 Assay, LDH-coupled, absorbance 340 nm. Format: biochemical. As to conditions: wild type PKM2 enzyme activation. On the procedure:
PKM2 enzyme stock solution was diluted to prepare a 1.25× Reaction Mix (without ADP). 1 μL of test compound was first added to the wells followed by 40 μL of 1.25× Reaction Mix (without ADP) and incubated at room temperature (25° C.) for 60 min. The reaction was initiated with 10 μL ADP (0.4 mM final concentration), bringing the final Reaction Mix to 1x, and the reaction progress was measured as changes in absorbance at 340 nm wavelength at room temperature.
as §2
Reaction Mix: PKM2 (5 ng/well, 0.1 μg/ml), ADP (0.4 mM), PEP (0.11 mM), NADH (180 μM), LDH (0.005 U/μL, Sigma #L3888), 1 mM DTT, 0.03% BSA in 1×
as §4

The target of test [5] is PKR WT (Homo sapiens, UniProt P30613). Kind of test: PKR enzyme assay (WT), LDH-coupled, absorbance 340 nm. The test is classed as biochemical. As to conditions: wild type PKR enzyme activation. On the procedure: as §1, §2, §3, §4
Sequence of PKR WT (P30613 whole entry): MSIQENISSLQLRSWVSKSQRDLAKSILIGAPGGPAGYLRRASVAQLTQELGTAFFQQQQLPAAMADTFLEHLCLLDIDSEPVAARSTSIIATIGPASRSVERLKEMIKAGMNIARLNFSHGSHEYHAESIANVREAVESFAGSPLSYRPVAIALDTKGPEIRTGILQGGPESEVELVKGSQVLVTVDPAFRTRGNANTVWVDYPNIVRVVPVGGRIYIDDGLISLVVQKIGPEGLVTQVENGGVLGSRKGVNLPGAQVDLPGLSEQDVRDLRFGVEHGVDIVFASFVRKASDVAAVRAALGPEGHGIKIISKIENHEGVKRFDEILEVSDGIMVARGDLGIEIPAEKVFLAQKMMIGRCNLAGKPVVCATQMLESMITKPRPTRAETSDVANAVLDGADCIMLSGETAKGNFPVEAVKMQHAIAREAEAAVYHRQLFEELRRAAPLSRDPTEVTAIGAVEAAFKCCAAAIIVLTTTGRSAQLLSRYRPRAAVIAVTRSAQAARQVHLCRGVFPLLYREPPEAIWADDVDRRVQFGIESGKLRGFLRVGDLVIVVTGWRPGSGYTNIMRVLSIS
The target in test [6] is PKM2 (Mus musculus, UniProt P52480). The note with it: in vivo; cited from earlier work.
Sequence of PKM2 (P52480 whole entry): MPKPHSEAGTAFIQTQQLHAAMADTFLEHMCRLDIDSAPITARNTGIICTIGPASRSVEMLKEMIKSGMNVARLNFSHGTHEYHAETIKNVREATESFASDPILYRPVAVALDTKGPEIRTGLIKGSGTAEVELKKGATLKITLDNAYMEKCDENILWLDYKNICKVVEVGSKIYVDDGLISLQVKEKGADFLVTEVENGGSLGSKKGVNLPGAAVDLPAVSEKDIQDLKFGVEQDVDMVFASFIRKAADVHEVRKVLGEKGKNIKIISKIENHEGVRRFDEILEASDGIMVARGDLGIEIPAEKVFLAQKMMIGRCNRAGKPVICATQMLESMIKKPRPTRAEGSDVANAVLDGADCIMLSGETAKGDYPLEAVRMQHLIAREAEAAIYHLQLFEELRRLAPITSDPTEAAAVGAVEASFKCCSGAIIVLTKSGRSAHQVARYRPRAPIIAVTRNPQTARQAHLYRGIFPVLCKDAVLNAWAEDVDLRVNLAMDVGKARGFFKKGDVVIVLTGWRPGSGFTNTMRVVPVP

This is an account of results in patent US20220127267A1, “THIENO[3,2-B] PYRROLE[3,2-D]PYRIDAZINONE DERIVATIVES AND THEIR USE AS PKM2 DERIVATIVES FOR THE TREATMENT OF CANCER, OBESITY AND DIABETES RELATED DISORDERS” (Agios Pharmaceuticals, Inc., priority 2019, published 2022).

As a reminder, the AC50 is the concentration giving half of the maximal activity seen. A low value points to greater potency.

Where only a bound is given, the exact number is not on record here.

Sequence of PK R510Q (P30613 whole entry R510Q): as the sequence (P30613 whole entry) above, with R510Q counted along it
Sequence of PKM2 WT (P14618 whole entry): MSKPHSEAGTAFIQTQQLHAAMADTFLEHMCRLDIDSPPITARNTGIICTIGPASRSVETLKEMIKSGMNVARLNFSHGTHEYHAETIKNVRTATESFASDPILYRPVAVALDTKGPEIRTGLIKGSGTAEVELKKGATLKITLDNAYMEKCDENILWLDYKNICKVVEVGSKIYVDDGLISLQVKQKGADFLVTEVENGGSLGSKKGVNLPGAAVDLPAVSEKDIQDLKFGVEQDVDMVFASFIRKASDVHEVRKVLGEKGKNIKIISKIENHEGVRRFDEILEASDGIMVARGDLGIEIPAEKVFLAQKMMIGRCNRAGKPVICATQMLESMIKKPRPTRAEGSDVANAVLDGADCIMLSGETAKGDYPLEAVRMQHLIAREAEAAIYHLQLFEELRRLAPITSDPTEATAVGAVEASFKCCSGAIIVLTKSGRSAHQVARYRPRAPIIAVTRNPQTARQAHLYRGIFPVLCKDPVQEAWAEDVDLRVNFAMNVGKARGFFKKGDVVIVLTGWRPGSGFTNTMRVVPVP
Sequence of PKR K410E (P30613 whole entry K410E): as the sequence (P30613 whole entry) above, with K410E counted along it

Take `COc1cccc(Cn2ncn3c(c(C)c4nc(C)sc43)c2=O)c1` [Cpd 25]: the AC50 in test [1], in test [2], in test [4] and in test [5] was > 800 nM in each case. In test [3], the “Cell based ATP assay AC50” value is on record as “No Fit”.

`Cc1nc2c3cnn(Cc4ccccc4)c(=O)c3n(C)c2s1` [Cpd 26]: the half-maximal activity concentration (AC50) in test [1], in test [2], in test [4] and in test [5] was > 800 nM each time. Further, the “Cell based ATP assay AC50” value in test [3] was “No Fit”.

Consider `Cn1ccc(Cn2ncc3c4cc(Cc5cscn5)ccc4n(C)c3c2=O)n1` [Cpd 31], for which the AC50 in test [1] is > 800 nM; in test [2] it was > 800 nM; in test [3] (Homo sapiens, Erythrocyte) it was > 1000 nM; in test [4] it was > 800 nM; in test [5] it was > 800 nM.

Take `Cn1cc(Cc2ccc3c(c2)c2cnn(Cc4cccc(C(N)=O)c4)c(=O)c2n3C)cn1` [Cpd 35]: the “PK R510Q AC50” value in test [1] was “No Fit”. Further, the “PKR K410E AC50” value in test [2] is listed as “No Fit”. Further, the “Cell based ATP assay AC50” value in test [3] was “No Fit”. In addition, the AC50 in test [4] lay within 301 to 800 nM. Moreover, in test [5], the “PKR WT AC50” value was “No Fit”.

Regarding `Cn1c2ccc([S+](C)[O-])cc2c2cnn(Cc3cccc(C(N)=O)c3)c(=O)c21` (centres unmarked) [Cpd 51], the AC50 in test [1], in test [2], in test [4] and in test [5] was > 800 nM throughout. The “Cell based ATP assay AC50” value in test [3] is on record as “No Fit”.

With `Cn1c2ccc(S(C)(=O)=O)cc2c2cnn(Cc3cccc(C(N)=O)c3)c(=O)c21` [Cpd 52], the AC50 in test [1] is > 800 nM; in test [2], > 800 nM; in test [4], 301 to 800 nM; in test [5], > 800 nM. Further, the “Cell based ATP assay AC50” value in test [3] was “No Fit”.

Take `Cn1cc(Cc2ccc3c4cnn(Cc5cccc(C(N)=O)c5)c(=O)c4n(C)c3c2)cn1` [Cpd 62]: the AC50 was > 800 nM in test [1], > 800 nM in test [2], 301 to 800 nM in test [4] and > 800 nM in test [5]. Moreover, the “Cell based ATP assay AC50” value in test [3] is reported as “No Fit”.

As to `COc1cccc(Cn2ncc3c4cccnc4n(C)c3c2=O)c1` [Cpd 66], the AC50 in test [1] is 301 to 800 nM; in test [2], > 800 nM; in test [4], 301 to 800 nM; in test [5], > 800 nM.

Regarding `Cn1c2cc([S+](C)[O-])sc2c2cnn(Cc3cccc(N)c3)c(=O)c21` (centres unmarked) [TEPP-46], in test [6], the “LPS and IL-1β production” value is “inhibited”; the “production of IL-10” value is recorded as “boosting”.
